Test results as given in paper PMC10436550, “Subacute toxicity evaluations of LPM3480392 in rats, a full µ-opioid receptor biased agonist” (Frontiers in Pharmacology, 2023).

Test system: Sprague Dawley (SD) rats
Assay: Organ weight and ratios, 4-week subacute toxicity study
Assay type: in vivo, rat
Settings: male rats
Protocol: Complete gross necropsies were conducted on all surviving animals at the end of treatment (the day after the last dosing) and recovery periods. The following selected organs were weighed and evaluated in terms of organ/body or organ/brain weight ratios: brain, kidneys, adrenals, testes, ovaries, uterus, epididymides, thymus, spleen, heart and liver. Paired organs were weighed together. Organ-to-body weight ratio = Organ weight(g)/Body weight(g) × 100%, and Organ-to-brain weight ratio = Organ weight(g)/Brain weight(g) × 100%.

[1] = 0.6 mg/kg/day, End of recovery phase
[2] = 1.2 mg/kg/day, End of dosing phase
[3] = 1.2 mg/kg/day, End of recovery phase
[4] = 2.4 mg/kg/day, End of dosing phase
[5] = 2.4 mg/kg/day, End of recovery phase

Question: Which results are given for Fc1ccc([C@]2(CCNCc3cccc(Cl)c3)CCO[C@]3(CCOC3)C2)nc1 [LPM3480392]?
Answer: Organ weight, Heart [1]: 1.431 ± 0.112 g; Organ weight, Liver [1]: 9.943 ± 1.685 g; Organ weight, Spleen [1]: 0.774 ± 0.108 g; Organ weight, Thymus [1]: 0.470 ± 0.076 g; Organ-to-body weight ratio, Adrenal gland [1]: 0.013 ± 0.002%; Organ-to-body weight ratio, Brain [1]: 0.534 ± 0.040%; Organ-to-body weight ratio, Epididymis [1]: 0.338 ± 0.036%; Organ-to-body weight ratio, Heart [1]: 0.337 ± 0.020%; Organ-to-body weight ratio, Liver [1]: 2.327 ± 0.250%; Organ-to-body weight ratio, Spleen [1]: 0.182 ± 0.018%; Organ-to-body weight ratio, Thymus [1]: 0.110 ± 0.016%; Organ-to-brain weight ratio, Adrenal gland [1]: 2.52 ± 0.37%; Organ-to-brain weight ratio, Epididymis [1]: 63.42 ± 6.91%; Organ-to-brain weight ratio, Heart [1]: 63.29 ± 4.73%; Organ-to-brain weight ratio, Liver [1]: 441.01 ± 85.94%; Organ-to-brain weight ratio, Spleen [1]: 34.27 ± 5.33%; Organ-to-brain weight ratio, Thymus [1]: 20.83 ± 3.66%; Terminal BW [1]: 425.2 ± 26.4 g; Organ weight, Adrenal gland [2]: 0.052 ± 0.007 g; Organ weight, Brain [2]: 2.015 ± 0.137 g; Organ weight, Epididymis [2]: 1.020 ± 0.040 g; Organ weight, Heart [2]: 1.199 ± 0.140 g; Organ weight, Liver [2]: 7.643 ± 0.801 g; Organ weight, Spleen [2]: 0.703 ± 0.103 g; Organ weight, Thymus [2]: 0.425 ± 0.115 g; Organ-to-body weight ratio, Adrenal gland [2]: 0.017 ± 0.002%; Organ-to-body weight ratio, Brain [2]: 0.655 ± 0.040%; Organ-to-body weight ratio, Epididymis [2]: 0.332 ± 0.030%; Organ-to-body weight ratio, Heart [2]: 0.388 ± 0.025 %; Organ-to-body weight ratio, Liver [2]: 2.473 ± 0.100%; Organ-to-body weight ratio, Spleen [2]: 0.227 ± 0.026%; Organ-to-body weight ratio, Thymus [2]: 0.136 ± 0.028%; Organ-to-brain weight ratio, Adrenal gland [2]: 2.59 ± 0.37%; Organ-to-brain weight ratio, Epididymis [2]: 50.88 ± 4.79%; Organ-to-brain weight ratio, Heart [2]: 59.48 ± 5.54%; Organ-to-brain weight ratio, Liver [2]: 378.95 ± 25.83%; Organ-to-brain weight ratio, Spleen [2]: 35.01 ± 5.62%; Organ-to-brain weight ratio, Thymus [2]: 20.87 ± 4.42%; Terminal BW [2]: 308.5 ± 22.5 g; Organ weight, Adrenal gland [3]: 0.060 ± 0.010 g; Organ weight, Brain [3]: 2.177 ± 0.033 g; Organ weight, Epididymis [3]: 1.351 ± 0.094 g; Organ weight, Heart [3]: 1.483 ± 0.081 g; Organ weight, Liver [3]: 10.423 ± 1.077 g; Organ weight, Spleen [3]: 0.814 ± 0.089 g; Organ weight, Thymus [3]: 0.393 ± 0.042 g; Organ-to-body weight ratio, Adrenal gland [3]: 0.014 ± 0.003%; Organ-to-body weight ratio, Brain [3]: 0.514 ± 0.031%; Organ-to-body weight ratio, Epididymis [3]: 0.318 ± 0.010%; Organ-to-body weight ratio, Heart [3]: 0.349 ± 0.017%; Organ-to-body weight ratio, Liver [3]: 2.451 ± 0.149%; Organ-to-body weight ratio, Spleen [3]: 0.192 ± 0.022%; Organ-to-body weight ratio, Thymus [3]: 0.093 ± 0.013%; Organ-to-brain weight ratio, Adrenal gland [3]: 2.74 ± 0.50%; Organ-to-brain weight ratio, Epididymis [3]: 62.05 ± 4.34%; Organ-to-brain weight ratio, Heart [3]: 68.08 ± 3.40%; Organ-to-brain weight ratio, Liver [3]: 478.76 ± 49.84%; Organ-to-brain weight ratio, Spleen [3]: 37.41 ± 4.09%; Organ-to-brain weight ratio, Thymus [3]: 18.03 ± 1.83%; Terminal BW [3]: 424.6 ± 23.0 g; Organ weight, Adrenal gland [4]: 0.052 ± 0.004 g; Organ weight, Brain [4]: 2.031 ± 0.066 g; Organ weight, Epididymis [4]: 0.904 ± 0.104 g; Organ weight, Heart [4]: 1.172 ± 0.071 g; Organ weight, Liver [4]: 7.348 ± 0.497 g; Organ weight, Spleen [4]: 0.686 ± 0.129 g; Organ weight, Thymus [4]: 0.394 ± 0.075 g; Organ-to-body weight ratio, Adrenal gland [4]: 0.018 ± 0.002%; Organ-to-body weight ratio, Brain [4]: 0.689 ± 0.061%; Organ-to-body weight ratio, Epididymis [4]: 0.305 ± 0.028%; Organ-to-body weight ratio, Heart [4]: 0.397 ± 0.037 %; Organ-to-body weight ratio, Liver [4]: 2.487 ± 0.195%; Organ-to-body weight ratio, Spleen [4]: 0.231 ± 0.033%; Organ-to-body weight ratio, Thymus [4]: 0.132 ± 0.019%; Organ-to-brain weight ratio, Adrenal gland [4]: 2.59 ± 0.24%; Organ-to-brain weight ratio, Epididymis [4]: 44.58 ± 5.64 %; Organ-to-brain weight ratio, Heart [4]: 57.77 ± 3.83%; Organ-to-brain weight ratio, Liver [4]: 361.66 ± 16.84 %; Organ-to-brain weight ratio, Spleen [4]: 33.71 ± 5.76%; Organ-to-brain weight ratio, Thymus [4]: 19.36 ± 3.42%; Terminal BW [4]: 296.6 ± 24.2 g; Organ weight, Adrenal gland [5]: 0.055 ± 0.009 g; Organ weight, Brain [5]: 2.185 ± 0.147 g; Organ weight, Epididymis [5]: 1.239 ± 0.114 g; Organ weight, Heart [5]: 1.360 ± 0.262 g; Organ weight, Liver [5]: 9.451 ± 1.196 g; Organ weight, Spleen [5]: 0.775 ± 0.172 g; Organ weight, Thymus [5]: 0.386 ± 0.038 g; Organ-to-body weight ratio, Adrenal gland [5]: 0.014 ± 0.002%; Organ-to-body weight ratio, Brain [5]: 0.559 ± 0.076%; Organ-to-body weight ratio, Epididymis [5]: 0.315 ± 0.026%; Organ-to-body weight ratio, Heart [5]: 0.342 ± 0.024%; Organ-to-body weight ratio, Liver [5]: 2.391 ± 0.064%; Organ-to-body weight ratio, Spleen [5]: 0.194 ± 0.023%; Organ-to-body weight ratio, Thymus [5]: 0.099 ± 0.013%; Organ-to-brain weight ratio, Adrenal gland [5]: 2.55 ± 0.51%; Organ-to-brain weight ratio, Epididymis [5]: 56.82 ± 5.54%; Organ-to-brain weight ratio, Heart [5]: 62.11 ± 10.37%; Organ-to-brain weight ratio, Liver [5]: 432.91 ± 49.50%; Organ-to-brain weight ratio, Spleen [5]: 35.31 ± 6.72%; Organ-to-brain weight ratio, Thymus [5]: 17.77 ± 2.29%; Terminal BW [5]: 395.7 ± 53.7 g
